These results are taken from patent US11560391B2, “Sulfonylurea compounds as inhibitors of interleukin-1 activity” (Genentech, Inc., priority 2018, dated 2023).

The subject of one test is THP-1 ASC-GFP cells. The test is described as follows: THP-1 ASC-GFP speck assay (NLRP3 inflammasome activation, nigericin). In kind it is cell-based. The note with it: THP1-ASC-GFP; PMA-differentiated, LPS primed, 10 μM nigericin. As for the experimental part:
THP-1 ASC-GFP cell line was purchased from Invivogen, San Diego, for infammasome activation assay. THP-1 ASC-GFP cells stably express a 37.6 kDa ASC::GFP fusion protein that enables monitoring of spec formation by microscopy after activation of NLRP3 dependent inflammasome pathway. Cells were maintained at a density of 600,000 cells/mL in growth media consisting of RPMI 1640, 2 mM L-glutamine, 25 mM HEPES and 10% heat inactivated fetal bovine serum at 37° C. and 5% CO2. Cells were passaged every 3-4 days and used for assays for up to 20 passages.
THP-1 ASC-GFP cells were collected by centrifuging cells at 800 RPM for 5 minutes. Cell culture supernatant was removed and cells were re-suspended in fresh media at density of 1×10^6 cells/mL in assay media consisting of RPMI 1640, 2 mM L-glutamine, 25 mM HEPES and 10% heat inactivated fetal bovine serum. Phorbol 12-myristate 13-acetate (PMA) (Invivogen,tlrl-pma) was added to the cell suspension at a final concentration of 500 ng/ml and mixed thoroughly. 40,000 cells were added per well of a 384 well plate and differentiated into macrophages overnight at 37° C. and 5% CO2. Cells were primed with 1 μg/mL of lipopolysaccharide (Invivogen Ultrapure lipopolysaccharide from E. coli, tlrl-3pelps) in assay media for 3 hours at 37° C. and 5% CO2. After priming, media was removed and THP-1 ASC-GFP cells were preincubated with serially diluted test compounds with starting concentration of 40 μM followed by 2-fold dilution for a 20-point curve or vehicle (DMSO) for 30 min in assay media at 37° C. and 5% CO2. Cells were then stimulated with 10 μM nigericin (Invivogen, tlrl-nig-5) for 90 min at 37° C. and 5% CO2 to activate NLRP3 dependent inflammasome pathway and spec formation. After stimulation, cells were fixed with 4.8% paraformaldehyde (Electron Microscopy Sciences #15710-S) and incubated at room temperature for 15 min. Cells were then washed 3-times with 100 μL of phosphate buffered saline and permeabilized in the presence of premeablization/block buffer for 20 min at room temperature. Cells were then washed 3-times with 100 μL phosphate buffered saline and incubated for 1 hr at room temperature in the presence of hoechst. After staining with Hoechst, cells were washed 3-times with 100 μL phosphate buffered saline and imaged for ASC spec formation.
THP-1 ASC-GFP cells were imaged in 488 and Hoechst channels. Hoechst channel was used for cell count and 488 channel was used to identify number of GFP ASC specks in imaged fields. Percentage of cells with a spec was calculated by dividing the number of GFP positive spots by total number of cells.

The subject of a further test is PBMCs. The test is described as follows: CTG (CellTiter-Glo) viability assay of compound-treated LPS and nigericin stimulated PBMCs. In kind it is cell-based, human. As to the method:
(§1) Human peripheral blood mononuclear cells (PBMCs), consisting of lymphocytes (T, B and NK cells), monocytes and dendritic cells, are freshly isolated from human peripheral blood from healthy donors. Cells are obtained through an IRB approved donor program by iXCells Biotechnologies where all the donors are tested for bacterial and viral infections. Cells are purified from peripheral blood using ficoll gradient centrifugation.
(§2) Fresh or cryopreserved PMBCs are seeded in V-bottom 96-well plate at 0.5-1×10^5 cells per well and incubated overnight at 37° C. with 5% CO2 in RPMI 1640 medium with GlutaMAX supplement, 4.5 g/L D-glucose, 10% Fetal Bovine Serum (FBS), […] Sodium Pyruvate, 1% Penicillin/Streptomycin, 10 mM HEPES and 0.05 mM of […]. Freshly isolated or cryopreserved KCs cells are seeded in flat-bottom 96-well plates at 0.6-1.5×10^5 cells/well and incubated overnight at 37° C., 5% CO2 in RPMI 1640 Medium with GlutaMAX supplement, FBS, 1% Penicillin/Streptomycin and 10 mM HEPES. The following day, the cells are primed with 100 ng/mL of lipopolysaccharides (LPS; Sigma Aldrich) in FBS-free RPMI 1640 for 3 h. After the priming step, the media is removed and PBMCs are pre-incubated with serial concentrations of test compounds (0.00017-10 uM) or vehicle (DMSO) for 30 min in FBS-free media prior to addition of the NLRP3 activator. Cells are then stimulated with 10 μM Nigericin (Sigma Aldrich; InvivoGen) for 1.5 h. Plates were centrifuged at 1,500 rpm for 3 minutes to pellet cells and supernatant was transferred into new plates for subsequent experiments.
Viability of compound treated cells is measured using CellTiter-Glo® assay (Promega, Madison, Wis.) that measures the ATP content of cells which is proportional to the number of live cells within a well. This is a counter-screen to establish that the reduction of IL-1β levels in LPS and nigericin stimulated and compound treated cells is not due to cytotoxicity, but rather through the inhibition of the inflammasome pathway. Compounds inhibiting NRLP3 inflammasome activation ultimately increase the viability of LPS and nigericin stimulated cells by blocking NLRP3 mediated pyroptosis that would otherwise lead to cell lysis.

The next test deals with T1, NLRP3 inflammasome (Homo sapiens, UniProt Q96P20).
T1 construct: freshly isolated from human peripheral blood from healthy donors; StemCells Technologies; host or cells: primary human PBMCs
T1 sequence (Q96P20 whole entry): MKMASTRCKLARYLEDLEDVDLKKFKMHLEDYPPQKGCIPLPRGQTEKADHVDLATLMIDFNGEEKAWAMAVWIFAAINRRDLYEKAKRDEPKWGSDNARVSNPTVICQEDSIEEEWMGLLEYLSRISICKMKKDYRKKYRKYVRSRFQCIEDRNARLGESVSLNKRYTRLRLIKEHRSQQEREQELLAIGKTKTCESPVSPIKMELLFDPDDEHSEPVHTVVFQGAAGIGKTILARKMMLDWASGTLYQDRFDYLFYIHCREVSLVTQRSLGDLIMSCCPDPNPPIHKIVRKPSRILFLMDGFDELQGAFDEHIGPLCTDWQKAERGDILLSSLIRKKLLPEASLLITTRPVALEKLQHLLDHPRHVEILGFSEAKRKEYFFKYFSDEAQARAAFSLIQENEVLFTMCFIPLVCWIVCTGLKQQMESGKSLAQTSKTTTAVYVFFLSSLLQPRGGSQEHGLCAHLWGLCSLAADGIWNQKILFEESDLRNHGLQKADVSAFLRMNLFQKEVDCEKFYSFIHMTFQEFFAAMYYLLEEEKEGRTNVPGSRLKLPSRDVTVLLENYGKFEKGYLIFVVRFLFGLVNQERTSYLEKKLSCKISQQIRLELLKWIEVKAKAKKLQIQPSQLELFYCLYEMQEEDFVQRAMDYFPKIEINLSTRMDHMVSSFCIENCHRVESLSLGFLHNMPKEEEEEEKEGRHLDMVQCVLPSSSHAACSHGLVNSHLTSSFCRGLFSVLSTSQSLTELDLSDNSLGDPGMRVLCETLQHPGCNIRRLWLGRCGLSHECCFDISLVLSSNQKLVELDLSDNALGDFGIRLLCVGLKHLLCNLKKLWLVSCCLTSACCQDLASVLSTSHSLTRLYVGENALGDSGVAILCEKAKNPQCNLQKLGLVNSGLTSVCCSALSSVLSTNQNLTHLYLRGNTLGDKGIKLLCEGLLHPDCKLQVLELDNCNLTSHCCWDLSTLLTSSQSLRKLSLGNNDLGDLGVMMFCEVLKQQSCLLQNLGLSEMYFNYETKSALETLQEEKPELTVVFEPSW
The test is described as follows: NLRP3 inflammasome activation assay in LPS-primed, nigericin-stimulated PBMCs, IL-1β release. The test is classed as cell-based. The note with it: 10 μM nigericin. As to the method:
Some of the following assays were used to determine the inhibitory activity of the compounds on the NLRP3 inflammasome using a common inflammasome activation stimuli-nigericin.
as §1, §2
For ELISA assays cells are seeded into 96-well plates. Post study, supernatants are removed and the levels of mature IL-1β, IL18 and TNFα (Quantikine ELISA, R&D systems) are measured in cell conditioned media by ELISA according to manufacturer's instructions.
Human frozen PBMCs were purchased from StemCells Technologies. Cells were rapidly thawed in 37° C. water bath and resuspended in fresh assay media consisting of RPMI 1640 Medium containing 1% sodium pyruvate, 10 mM HEPES, 2.5 g/L glucose and 55 μM 2-Mercaptoethanol. Cell density was adjusted to 8.1×10^5 cells/mL. Cells were primed by adding lipopolysaccharide (Invivogen Ultrapure lipopolysaccharide from E. coli, tlrl-3pelps) at a final concentration of 100 ng/mL in cell suspension. 37 μL of cell suspension with LPS was seeded per well of a 384 well plate and incubated for 3 hours at 37° C. and 5% CO2. After priming, PBMCs were preincubated with serially diluted test compounds with starting concentration of 40 μM followed by 2-fold dilution for a 20-point curve or vehicle (DMSO) for 30 min in assay media at 37° C. and 5% CO2. Cells were then stimulated with 10 μM nigericin (Invivogen, tlrl-nig-5) for 90 min at 37° C. and 5% CO2 to activate NLRP3 dependent inflammasome pathway and IL-1β release in cell culture supernatant. Cells were centrifuged at 1200 RPM for 1 min and 40 μL of supernatant was transferred into fresh plates and stored at −80° C. until IL-1β analysis.
16 μL of supernatant was added to white 384 well HTRF plates, followed by addition of 4 μL of HTRF cocktail in each well. Plates were quickly centrifuged, sealed and incubated overnight at room temperature. Next day, HTRF signal was read on a Pherastar and ratio of 665/620 was calculated based on manufacturer's protocol to obtain concentration of IL-1β in cell culture supernatant.

Setting [1] is: Homo sapiens, PBMC, LPS and nigericin stimulated cells, read-out: CTG pIC50 (converted).
[2] abbreviates: LPS 100 ng/mL priming, read-out: IL-1B pIC50 (converted).
Where [3] appears, read: Homo sapiens, PBMC, read-out: PMBC CTG IC50.
Setting [4] is: PBMC, LPS priming, read-out: PMBC IL-1β IC50.

Like-named read-outs stand apart in the source and are kept apart here.

Take `CC(C)c1nn(CC(F)F)c(C(C)C)c1NC(=O)NS(=O)(=O)c1cnn2c1OCCC2` [Example 63, N-((1-(2,2-difluoroethyl)-3,5-diisopropyl-1H-pyrazol-4-yl)carbamoyl)-6,7-dihydro-5H-pyrazolo[5,1-b][1,3]oxazine-3-sulfonamide, ammonia]: the IC50 in the test on THP-1 ASC-GFP cells turned out to be 350 nM. In turn, `COc1cc(-c2nc(C(F)(F)F)cc(C(C)C)c2NC(=O)NS(=O)(=O)c2cnn3c2OCCC3)ccn1` [Example 74, Sodium N-((4-isopropyl-2′-methoxy-6-(trifluoromethyl)-[2,4′-bipyridin]-3-yl)carbamoyl)-6,7-dihydro-5H-pyrazolo[5,1-b][1,3]oxazine-3-sulfonamide] came in with an IC50 in the test on THP-1 ASC-GFP cells of 340 nM. On to `O=C(NC1(c2ccccc2)CC1)NS(=O)(=O)c1cnn2c1OCCC2` [drawing 376], for which the IC50 in the test with PBMCs (setting [1]) and at NLRP3 inflammasome (setting [2]) was over 10000 nM in each case. For `COc1cc(C(C)C)c(NC(=O)NS(=O)(=O)c2cnn3c2OC[C@@H](OC)C3)c(C(C)C)n1` [drawing 404], the IC50 with PBMCs (setting [1]) and at NLRP3 inflammasome (setting [2]) was 100 to 1000 nM each time. Regarding `CC(C)c1cncc(C(C)C)c1NC(=O)NS(=O)(=O)c1cnn2c1OCCC2` [Example 28, N-((3,5-diisopropylpyridin-4-yl)carbamoyl)-6,7-dihydro-5H-pyrazolo[5,1-b][1,3]oxazine-3-sulfonamide], the IC50 in the test with PBMCs (setting [3]) was determined as 69 nM; on NLRP3 inflammasome (setting [4]), 1790 nM. The matching figures for `CC(C)n1nc2c(c1NC(=O)NS(=O)(=O)c1cnn3c1OCCC3)CCC2` [Example 44, N-((2-isopropyl-2,4,5,6-tetrahydrocyclopenta[c]pyrazol-3-yl)carbamoyl)-6,7-dihydro-5H-pyrazolo[5,1-b][1,3]oxazine-3-sulfonamide]: over 10000 nM and 1220 nM. Regarding `CC(C)c1nn(CC2CC2)c(C(C)C)c1NC(=O)NS(=O)(=O)c1cnn2c1OCCC2` [drawing 402], the IC50 in the test on PBMCs (setting [1]) and at NLRP3 inflammasome (setting [2]) was 100 to 1000 nM in each case.

`COc1cc(C(C)C)c(NC(=O)NS(=O)(=O)c2cnn3c2OC[C@@H](N2CC(OC)C2)C3)c(C(C)C)n1` [drawing 409]: the IC50 in the test with PBMCs (setting [1]) is 100 to 1000 nM; at NLRP3 inflammasome (setting [2]), under 100 nM. The matching figures for `COc1cc(C(C)C)c(NC(=O)NS(=O)(=O)c2cnn3c2OCC(CNC(C)=O)C3)c(C(C)C)n1` (stereo not drawn): 1000 to 10000 nM and 1000 to 10000 nM.

For `CC(C)c1ccnc(C(C)C)c1NC(=O)NS(=O)(=O)c1cnn2c1OCCC2` [drawing 397], the IC50 in the test with PBMCs (LPS and nigericin stimulated cells, read-out: CTG pIC50 (converted)) is 1000 to 10000 nM; on NLRP3 inflammasome (setting [2]), 1000 to 10000 nM. Consider `Cc1onc(-c2ccccc2)c1NC(=O)NS(=O)(=O)c1cnn2c1OCCC2` [drawing 373], for which the IC50 in the test on PBMCs (setting [1]) and at NLRP3 inflammasome (setting [2]) was over 10000 nM throughout. Regarding `O=C(NC1C2CC3CC(C2)C1C3)NS(=O)(=O)c1cnn2c1OCCC2` (stereo not drawn), the IC50 is over 10000 nM in the test with PBMCs (setting [1]) and 1000 to 10000 nM on NLRP3 inflammasome (setting [2]). On to `O=C(NC1C2CC3CC(C2)CC1C3)NS(=O)(=O)c1cnn2c1OCCC2` (stereo not drawn) [Example 3, N-(((1r,3r,5r,7r)-adamantan-2-yl)carbamoyl)-6,7-dihydro-5H-pyrazolo[5,1-b][1,3]oxazine-3-sulfonamide], for which the IC50 was over 10000 nM with PBMCs (setting [3]) and 2080 nM at NLRP3 inflammasome (setting [4]). Consider `CC(C)c1cc(C#N)nc(C(C)C)c1NC(=O)NS(=O)(=O)c1cnn2c1OCCC2` [drawing 416], for which the IC50 was 100 to 1000 nM in the test on PBMCs (setting [1]) and 1000 to 10000 nM at NLRP3 inflammasome (setting [2]). Taken in the same sequence, the figures for `CC(C)c1cc(Cl)nc(C(C)C)c1NC(=O)NS(=O)(=O)c1cnn2c1OCCC2` [drawing 399] were 100 to 1000 nM and 100 to 1000 nM.

As for `CC(C)c1ccnc(C(C)C)c1NC(=O)NS(=O)(=O)c1cnn2c1OCCC2` [Example 31, N-((2,4-diisopropylpyridin-3-yl)carbamoyl)-6,7-dihydro-5H-pyrazolo[5,1-b][1,3]oxazine-3-sulfonamide], the IC50 was 890 nM with PBMCs (setting [3]) and 4380 nM on NLRP3 inflammasome (setting [4]). Taken in the same sequence, the figures for `O=C(NC1(c2ccccc2)CC1)NS(=O)(=O)c1cnn2c1OCCC2` [Example 11, N-((1-phenylcyclopropyl)carbamoyl)-6,7-dihydro-5H-pyrazolo[5,1-b][1,3]oxazine-3-sulfonamide] were over 10000 nM and over 10000 nM. Consider `CC(C)c1cc(N(C)C)nc(C(C)C)c1NC(=O)NS(=O)(=O)c1cnn2c1OCCC2` [drawing 418], for which the values for the IC50 in the test with PBMCs (setting [1]) and on NLRP3 inflammasome (setting [2]) were 100 to 1000 nM and 1000 to 10000 nM, respectively. Taken in the same sequence, the figures for `CC(C)c1nn(C(C)C)c(C(C)C)c1NC(=O)NS(=O)(=O)c1cnn2c1OCCC2` [drawing 400] were 1000 to 10000 nM and 1000 to 10000 nM. In the case of `COc1cc(C(C)C)c(NC(=O)NS(=O)(=O)c2cnn3c2OC[C@@H](OC)C3)c(C(C)C)n1` [Example 37a, Sodium (S)—N-((2,4-diisopropyl-6-methoxypyridin-3-yl)carbamoyl)-6-methoxy-6,7-dihydro-5H-pyrazolo[5,1-b][1,3]oxazine-3-sulfonamide], the IC50 is 600 nM in the test on PBMCs (setting [3]) and 550 nM at NLRP3 inflammasome (setting [4]). `CCn1nc(C(C)C)c(NC(=O)NS(=O)(=O)c2cnn3c2OCCC3)c1C(C)C` [drawing 401]: the IC50 is 100 to 1000 nM in the test with PBMCs (setting [1]) and 1000 to 10000 nM at NLRP3 inflammasome (setting [2]). The matching figures for `CC(C)c1cncc(C(C)C)c1NC(=O)NS(=O)(=O)c1cnn2c1OCCC2` [drawing 393]: 100 to 1000 nM and 100 to 1000 nM.
